{"source": "patent US11530222B2", "about": "“Substituted pyrrolopyrimidine and pyrazolopyrimidine as Bruton's tyrosine kinase (BTK) degraders” (ACCUTAR BIOTECHNOLOGY INC., priority 2021, dated 2022)", "key": {"[1]": {"molecular_target": "T1, BTK (Homo sapiens, UniProt Q06187)", "T1 construct": "BTK Degradative Activity of Exemplary Compounds of the Present Disclosure in a RAMOS Cell Line; host or cells: RAMOS", "assay": "BTK degradative activity in a RAMOS cell line (Western blot)", "assay_type": "cell-based", "conditions": "6 hours after administration, read-out: RAMOS BTK Degradation DC50", "how_it_was_run": "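Ramos cells in RPMI with 10% FBS were treated with compound in DMSO at various concentrations for 6 h at 37 °C. BTK was measured by Western blot against GAPDH with infrared fluorescent detection and band quantification. DC50 is the concentration at which 50% of BTK is degraded.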"}, "[2]": {"tested_on": "REC-1 cells", "assay": "Growth inhibitory activity in BTK-dependent REC-1 cell line (CellTiter-Glo)", "assay_type": "cell-based", "conditions": "Homo sapiens, Rec1, 144 h, 6 days after administration, read-out: REC1 Cellular Grwoth Inhibition IC50", "experimental": "REC-1 (ATCC) and REC-1 BTK^C481S cells were plated in 96-well plates at 8,000 cells/well in 90 ul of RPMI growth medium containing 10% heat-inactivated FBS and 1× Penicillin Streptomycin, and then incubated at 37° C. overnight. The following day, the test compound was administered to the cells by using 10× compound stock solution prepared in growth medium at various concentrations. After administration of the compound, cells were then incubated at 37° C. for 6 days. Before CellTiter-Glo assay, the plates were equilibrated at room temperature for approximately 10 minutes. 100 ul of CellTiter-Glo® Reagent (Promega) was added to each well. The plates were then incubated at room temperature for 10 minutes and luminescence was recorded by EnSpire plate reader (PerkinElmer).\nThe GI50 values (i.e., the concentration of test compound at which 50% of cell growth are inhibited) were calculated. A designation of “A” corresponds to a […] value less than 20 nM. A designation of “B” corresponds to a […] value greater than or equal to 20 nM and less than 200 nM. A designation of “C” corresponds to a […] value greater than or equal to 200 nM."}}, "data": [{"compound": "COc1ccc(F)cc1C(=O)NCc1ccc(-c2nn(-c3ccc(N4CCC(CN5CCN(c6ccc7c(c6)C(=O)N(C6CCC(=O)NC6=O)C7=O)CC5)CC4)c(F)c3)c3ncnc(N)c23)cc1", "note": "(stereo not drawn) [Compound 50, N-(4-(4-amino-1-(4-(4-((4-(2-(2,6-dioxopiperidin-3-yl)-1,3-dioxoisoindolin-5-yl)piperazin-1-yl)methyl)piperidin-1-yl)-3-fluorophenyl)-1H-pyrazolo[3,4-d]pyrimidin-3-yl)benzyl)-5-fluoro-2-methoxybenzamide]", "values": [{"measurement": "DC50", "setting": "[1]", "result": "10 to 100", "unit": "nM"}, {"measurement": "IC50", "setting": "[2]", "result": "< 20", "unit": "nM"}]}, {"compound": "COc1ccc(F)cc1C(=O)NCc1ccc(-c2nn(-c3ccc(N4CCC(CN5CCN(c6cc7c(cc6F)C(=O)N([C@H]6CCC(=O)NC6=O)C7)CC5)CC4)c(F)c3)c3ncnc(N)c23)cc1", "note": "[Compound 51, (S)—N-(4-(4-amino-1-(4-(4-((4-(2-(2,6-dioxopiperidin-3-yl)-6-fluoro-1-oxoisoindolin-5-yl)piperazin-1-yl)methyl)piperidin-1-yl)-3-fluorophenyl)-1H-pyrazolo[3,4-d]pyrimidin-3-yl)benzyl)-5-fluoro-2-methoxybenzamide]", "values": [{"measurement": "DC50", "setting": "[1]", "result": "< 10", "unit": "nM"}, {"measurement": "IC50", "setting": "[2]", "result": "< 20", "unit": "nM"}]}, {"compound": "COc1ccc(F)cc1C(=O)NCc1ccc(-c2nn(C3CCN(c4ccc(CN5CCN(c6ccc7c(c6)CN([C@H]6CCC(=O)NC6=O)C7=O)CC5)cn4)CC3)c3ncnc(N)c23)cc1", "note": "[Compound 52, (S)—N-(4-(4-amino-1-(1-(5-((4-(2-(2,6-dioxopiperidin-3-yl)-1-oxoisoindolin-5-yl)piperazin-1-yl)methyl)pyridin-2-yl)piperidin-4-yl)-1H-pyrazolo[3,4-d]pyrimidin-3-yl)benzyl)-5-fluoro-2-methoxybenzamide]", "values": [{"measurement": "DC50", "setting": "[1]", "result": "< 10", "unit": "nM"}, {"measurement": "IC50", "setting": "[2]", "result": "< 20", "unit": "nM"}]}, {"compound": "COc1ccc(F)cc1C(=O)NCc1ccc(-c2nn(C3CCN(c4ccc(CN5CCN(c6ccc7c(c6)CN([C@H]6CCC(=O)NC6=O)C7=O)CC5)cc4)CC3)c3ncnc(N)c23)cc1", "note": "[Compound 53, (S)—N-(4-(4-amino-1-(1-(4-((4-(2-(2,6-dioxopiperidin-3-yl)-1-oxoisoindolin-5-yl)piperazin-1-yl)methyl)phenyl)piperidin-4-yl)-1H-pyrazolo[3,4-d]pyrimidin-3-yl)benzyl)-5-fluoro-2-methoxybenzamide]", "values": [{"measurement": "DC50", "setting": "[1]", "result": "< 10", "unit": "nM"}, {"measurement": "IC50", "setting": "[2]", "result": "< 20", "unit": "nM"}]}, {"compound": "COc1ccc(F)cc1C(=O)NCc1ccc(-c2nn(C3CN(c4ccc(CN5CCN(c6ccc7c(c6)CN([C@H]6CCC(=O)NC6=O)C7=O)CC5)cn4)C3)c3ncnc(N)c23)cc1", "note": "[Compound 54, (S)—N-(4-(4-amino-1-(1-(5-((4-(2-(2,6-dioxopiperidin-3-yl)-1-oxoisoindolin-5-yl)piperazin-1-yl)methyl)pyridin-2-yl)azetidin-3-yl)-1H-pyrazolo[3,4-d]pyrimidin-3-yl)benzyl)-5-fluoro-2-methoxybenzamide]", "values": [{"measurement": "DC50", "setting": "[1]", "result": "< 10", "unit": "nM"}, {"measurement": "IC50", "setting": "[2]", "result": "< 20", "unit": "nM"}]}, {"compound": "COc1ccc(F)cc1C(=O)NCc1ccc(-c2nn(C3CCN(C(=O)CCCCN4CCN(c5ccc6c(c5)CN([C@H]5CCC(=O)NC5=O)C6=O)CC4)C3)c3ncnc(N)c23)cc1", "note": "(stereo partly drawn) [Compound 55, N-(4-(4-amino-1-(1-(5-(4-(2-((S)-2,6-dioxopiperidin-3-yl)-1-oxoisoindolin-5-yl)piperazin-1-yl)pentanoyl)pyrrolidin-3-yl)-1H-pyrazolo[3,4-d]pyrimidin-3-yl)benzyl)-5-fluoro-2-methoxybenzamide]", "values": [{"measurement": "DC50", "setting": "[1]", "result": "10 to 100", "unit": "nM"}, {"measurement": "IC50", "setting": "[2]", "result": "≥ 200", "unit": "nM"}]}, {"compound": "COc1ccc(F)cc1C(=O)NCc1ccc(-c2nn(C3CCN(c4ccc(CN5CCN(c6ccc7c(c6)CN([C@H]6CCC(=O)NC6=O)C7=O)CC5)nc4)C3)c3ncnc(N)c23)cc1", "note": "(stereo partly drawn) [Compound 58, N-(4-(4-amino-1-(1-(6-((4-(2-((S)-2,6-dioxopiperidin-3-yl)-1-oxoisoindolin-5-yl)piperazin-1-yl)methyl)pyridin-3-yl)pyrrolidin-3-yl)-1H-pyrazolo[3,4-d]pyrimidin-3-yl)benzyl)-5-fluoro-2-methoxybenzamide]", "values": [{"measurement": "DC50", "setting": "[1]", "result": "≥ 100", "unit": "nM"}, {"measurement": "IC50", "setting": "[2]", "result": "≥ 200", "unit": "nM"}]}, {"compound": "COc1ccc(C(=O)N2CCN(CCCCCC(=O)N3CCC(Nc4ncnc5[nH]cc(C(=O)c6ccc(Oc7ccccc7)cc6Cl)c45)CC3)CC2)cc1N1CCC(=O)NC1=O", "note": "[Compound 71, 1-(5-(4-(6-(4-((5-(2-chloro-4-phenoxybenzoyl)-7H-pyrrolo[2,3-d]pyrimidin-4-yl)amino)piperidin-1-yl)-6-oxohexyl)piperazine-1-carbonyl)-2-methoxyphenyl) dihydropyrimidine-2,4(1H,3H)-dione]", "values": [{"measurement": "DC50", "setting": "[1]", "result": "10 to 100", "unit": "nM"}]}, {"compound": "COc1ccc(C(=O)N2CCN(CCCCC(=O)N3CCC(Nc4ncnc5[nH]cc(C(=O)c6ccc(Oc7ccccc7)cc6Cl)c45)CC3)CC2)cc1N1CCC(=O)NC1=O", "note": "[Compound 72, 1-(5-(4-(5-(4-((5-(2-chloro-4-phenoxybenzoyl)-7H-pyrrolo[2,3-d]pyrimidin-4-yl)amino)piperidin-1-yl)-5-oxopentyl)piperazine-1-carbonyl)-2-methoxyphenyl)dihydropyrimidine-2,4(1H,3H)-dione]", "values": [{"measurement": "DC50", "setting": "[1]", "result": "≥ 100", "unit": "nM"}]}, {"compound": "COc1ccc(C(=O)N2CCC(N3CCC(CC(=O)N4CCC(Nc5ncnc6[nH]cc(C(=O)c7ccc(Oc8ccccc8)cc7Cl)c56)CC4)CC3)CC2)cc1N1CCC(=O)NC1=O", "note": "[Compound 73, 1-(5-(4-(2-(4-((5-(2-chloro-4-phenoxybenzoyl)-7H-pyrrolo[2,3-d]pyrimidin-4-yl)amino)piperidin-1-yl)-2-oxoethyl)-[1,4′-bipiperidine]-1′-carbonyl)-2-methoxyphenyl)dihydropyrimidine-2,4(1H,3H)-dione]", "values": [{"measurement": "DC50", "setting": "[1]", "result": "10 to 100", "unit": "nM"}]}, {"compound": "COc1ccc(C(=O)N2CCN(CC3CCN(c4ccc(Nc5ncnc6[nH]cc(C(=O)c7ccc(Oc8ccccc8)cc7Cl)c56)cc4F)CC3)CC2)cc1N1CCC(=O)NC1=O", "note": "[Compound 74, 1-(5-(4-((1-(4-((5-(2-chloro-4-phenoxybenzoyl)-7H-pyrrolo[2,3-d]pyrimidin-4-yl)amino)-2-fluorophenyl)piperidin-4-yl)methyl)piperazine-1-carbonyl)-2-methoxyphenyl)dihydropyrimidine-2,4(1H,3H)-dione]", "values": [{"measurement": "DC50", "setting": "[1]", "result": "≥ 100", "unit": "nM"}]}, {"compound": "COc1ccc(C(=O)N2CCCN(CC3CCN(c4ccc(Nc5ncnc6[nH]cc(C(=O)c7ccc(Oc8ccccc8)cc7Cl)c56)cc4F)CC3)CC2)cc1N1CCC(=O)NC1=O", "note": "[Compound 75, 1-(5-(4-((1-(4-((5-(2-chloro-4-phenoxybenzoyl)-7H-pyrrolo[2,3-d]pyrimidin-4-yl)amino)-2-fluorophenyl)piperidin-4-yl)methyl)-1,4-diazepane-1-carbonyl)-2-methoxyphenyl)dihydropyrimidine-2,4(1H,3H)-dione]", "values": [{"measurement": "DC50", "setting": "[1]", "result": "10 to 100", "unit": "nM"}]}, {"compound": "COc1ccc(C(=O)N2CCN(CCC3CCN(c4ccc(Nc5ncnc6[nH]cc(C(=O)c7ccc(Oc8ccccc8)cc7Cl)c56)cc4F)CC3)CC2)cc1N1CCC(=O)NC1=O", "note": "[Compound 76, 1-(5-(4-(2-(1-(4-((5-(2-chloro-4-phenoxybenzoyl)-7H-pyrrolo[2,3-d]pyrimidin-4-yl)amino)-2-fluorophenyl)piperidin-4-yl)ethyl)piperazine-1-carbonyl)-2-methoxyphenyl)dihydropyrimidine-2,4(1H,3H)-dione]", "values": [{"measurement": "DC50", "setting": "[1]", "result": "≥ 100", "unit": "nM"}]}, {"compound": "COc1ccc(C(=O)N2CCC(N3CCC(CC(=O)N4CCC[C@@H](Nc5ncnc6[nH]cc(C(=O)c7ccc(Oc8ccccc8)cc7Cl)c56)C4)CC3)CC2)cc1N1CCC(=O)NC1=O", "note": "[Compound 77, (R)-1-(5-(4-(2-(3-((5-(2-chloro-4-phenoxybenzoyl)-7H-pyrrolo[2,3-d]pyrimidin-4-yl)amino)piperidin-1-yl)-2-oxoethyl)-[1,4′-bipiperidine]-1′-carbonyl)-2-methoxyphenyl) dihydropyrimidine-2,4(1H,3H)-dione]", "values": [{"measurement": "DC50", "setting": "[1]", "result": "≥ 100", "unit": "nM"}]}, {"compound": "COc1ccc(C(=O)N2CCN(CCCCCCC(=O)N3CCC(Nc4ncnc5[nH]cc(C(=O)c6ccc(Oc7ccccc7)cc6Cl)c45)CC3)CC2)cc1N1CCC(=O)NC1=O", "note": "[Compound 78, 1-(5-(4-(7-(4-((5-(2-chloro-4-phenoxybenzoyl)-7H-pyrrolo[2,3-d]pyrimidin-4-yl)amino)piperidin-1-yl)-7-oxoheptyl)piperazine-1-carbonyl)-2-methoxyphenyl)dihydropyrimidine-2,4(1H,3H)-dione]", "values": [{"measurement": "DC50", "setting": "[1]", "result": "< 10", "unit": "nM"}]}, {"compound": "COc1ccc(C(=O)N2CCCN(Cc3ccc(C(=O)N4CCC(Nc5ncnc6[nH]cc(C(=O)c7ccc(Oc8ccccc8)cc7Cl)c56)CC4)cc3)CC2)cc1N1CCC(=O)NC1=O", "note": "[Compound 79, 1-(5-(4-(4-(4-((5-(2-chloro-4-phenoxybenzoyl)-7H-pyrrolo[2,3-d]pyrimidin-4-yl)amino)piperidine-1-carbonyl)benzyl)-1,4-diazepane-1-carbonyl)-2-methoxyphenyl)dihydropyrimidine-2,4(1H,3H)-dione]", "values": [{"measurement": "DC50", "setting": "[1]", "result": "≥ 100", "unit": "nM"}]}, {"compound": "COc1ccc(C(=O)N2CCN(Cc3ccc(C(=O)N4CCC(Nc5ncnc6[nH]cc(C(=O)c7ccc(Oc8ccccc8)cc7Cl)c56)CC4)cc3)CC2)cc1N1CCC(=O)NC1=O", "note": "[Compound 80, 1-(5-(4-(4-(4-((5-(2-chloro-4-phenoxybenzoyl)-7H-pyrrolo[2,3-d]pyrimidin-4-yl)amino)piperidine-1-carbonyl)benzyl)piperazine-1-carbonyl)-2-methoxyphenyl)dihydropyrimidine-2,4(1H,3H)-dione]", "values": [{"measurement": "DC50", "setting": "[1]", "result": "≥ 100", "unit": "nM"}]}]}
